System: yeast genes (level of expressed mRNA)
Experiment: DNA chip analysis of expressed mRNA of yeast genes after 2 h culture with a toxic chemical substance
Format: cell-based, Saccharomyces cerevisiae S288C
Details: for The level of expressed mRNA in the presence of chemical substance/ (ratio to absence): transport facilitation protein gene; for The level of expressed mRNA in the presence of chemical substance/: ratio to no chemical; for The level of expressed mRNA in the presence of chemical substance/ (ratio to absence of chemical substance): stress protein genes, DNA chip
Summary of the method: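 S. cerevisiae S288C in YPD at 25 °C was exposed at log phase for 2 h to a growth-inhibiting, non-lethal concentration of the chemical. Poly(A) mRNA was reverse-transcribed with Cy3- or Cy5-dUTP and hybridized to a whole-genome yeast DNA chip (65 °C, >12 h). Values are fluorescence ratios versus untreated cells.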

sodium dodecylbenzosulfonate [(17)]
0.7: The level of expressed mRNA in the presence of chemical substance/in the absence of chemical substance (yeast gene YGR124W) | The level of expressed mRNA in the presence of chemical substance/ (ratio to absence) (yeast gene YGR138C) | The level of expressed mRNA in the presence of chemical substance/ (ratio to absence) (yeast gene YHR048W) | The level of expressed mRNA in the presence of chemical substance/The level of expressed mRNA in the absence of chemical substance (yeast gene YIL140W) | The level of expressed mRNA in the presence of chemical substance/ (yeast gene YKL187C)
0.5: The level of expressed mRNA in the presence of chemical substance/The level of expressed mRNA in the absence of chemical substance (yeast gene YKL096W)
1.4: The level of expressed mRNA in the presence of chemical substance/ (ratio to absence) (yeast gene YHL040C) | The level of expressed mRNA in the presence of chemical substance/The level of expressed mRNA in the absence of chemical substance (yeast gene YHR004C) | The level of expressed mRNA in the presence of chemical substance/in the absence of chemical substance (yeast gene YHR043C) | The level of expressed mRNA in the presence of chemical substance/ (ratio to absence) (yeast gene YHR094C) | The level of expressed mRNA in the presence of chemical substance/The level of expressed mRNA in the absence of chemical substance (yeast gene YHR139C) | The level of expressed mRNA in the presence of chemical substance/ (in its absence), gene YHR210C (yeast gene YHR210C, ratio of DNA chip fluorescence intensity to that without chemical substance) | The level of expressed mRNA in the presence of chemical substance/ (yeast gene YIL058W) | The level of expressed mRNA in the presence of chemical substance/ (yeast gene YJL036W) | The level of expressed mRNA in the presence of chemical substance/ (ratio to absence of chemical substance) (yeast gene YJL158C) | The level of expressed mRNA in the presence of chemical substance/ (in its absence), gene YJL167W (yeast gene YJL167W, ratio of DNA chip fluorescence intensity to that without chemical substance) | The level of expressed mRNA in the presence of chemical substance/ (yeast gene YJR085C) | The level of expressed mRNA in the presence of chemical substance/The level of expressed mRNA in the absence of chemical substance (yeast gene YJR086W) | The level of expressed mRNA in the presence of chemical substance/The level of expressed mRNA in the absence of chemical substance (yeast gene YKL008C)
1.9: The level of expressed mRNA in the presence of chemical substance/in the absence of chemical substance (yeast gene YGR244C) | The level of expressed mRNA in the presence of chemical substance/in the absence of chemical substance (yeast gene YHR018C)
1.1: The level of expressed mRNA in the presence of chemical substance/in the absence of chemical substance (yeast gene YGR192C) | The level of expressed mRNA in the presence of chemical substance/ (yeast gene YGR223C) | The level of expressed mRNA in the presence of chemical substance/The level of expressed mRNA in the absence of chemical substance (yeast gene YGR257C) | The level of expressed mRNA in the presence of chemical substance/ (ratio to absence) (yeast gene YHL035C) | The level of expressed mRNA in the presence of chemical substance/ (yeast gene YIL097W) | The level of expressed mRNA in the presence of chemical substance/ (in its absence), gene YJL070C (yeast gene YJL070C, ratio of DNA chip fluorescence intensity to that without chemical substance) | The level of expressed mRNA in the presence of chemical substance/The level of expressed mRNA in the absence of chemical substance (yeast gene YJL073W) | The level of expressed mRNA in the presence of chemical substance/ (ratio to absence), gene YJL096W (yeast gene YJL096W, mitochondria-located protein genes, 2 h culture with chemical) | The level of expressed mRNA in the presence of chemical substance/in the absence of chemical substance (yeast gene YJR009C) | The level of expressed mRNA in the presence of chemical substance/ (ratio to absence of chemical substance) (yeast gene YJR090C) | The level of expressed mRNA in the presence of chemical substance/in the absence of chemical substance (yeast gene YJR130C) | The level of expressed mRNA in the presence of chemical substance/in the absence of chemical substance (yeast gene YJR149W) | The level of expressed mRNA in the presence of chemical substance/The level of expressed mRNA in the absence of chemical substance (yeast gene YKL041W)
2.7: The level of expressed mRNA in the presence of chemical substance/in the absence of chemical substance (yeast gene YKL001C)
12.8: The level of expressed mRNA in the presence of chemical substance/The level of expressed mRNA in the absence of chemical substance (yeast gene YGR213C)
1.0: The level of expressed mRNA in the presence of chemical substance/ (yeast gene YGR247W) | The level of expressed mRNA in the presence of chemical substance/ (in its absence), gene YGR287C (yeast gene YGR287C, ratio of DNA chip fluorescence intensity to that without chemical substance) | The level of expressed mRNA in the presence of chemical substance/ (ratio to absence) (yeast gene YHL036W) | The level of expressed mRNA in the presence of chemical substance/ (yeast gene YJL185C) | The level of expressed mRNA in the presence of chemical substance/ (ratio to absence) (yeast gene YKL146W)
0.8: The level of expressed mRNA in the presence of chemical substance/in the absence of chemical substance (yeast gene YGR157W) | The level of expressed mRNA in the presence of chemical substance/ (yeast gene YHL044W) | The level of expressed mRNA in the presence of chemical substance/ (in its absence), gene YIL006W (yeast gene YIL006W, ratio of DNA chip fluorescence intensity to that without chemical substance) | The level of expressed mRNA in the presence of chemical substance/ (ratio to absence of chemical substance) (yeast gene YIL011W) | The level of expressed mRNA in the presence of chemical substance/ (ratio to absence) (yeast gene YIL022W) | The level of expressed mRNA in the presence of chemical substance/ (yeast gene YKL162C) | The level of expressed mRNA in the presence of chemical substance/ (ratio to absence of chemical substance) (yeast gene YKL164C)
1.2: The level of expressed mRNA in the presence of chemical substance/ (in its absence), gene YGR288W (yeast gene YGR288W, ratio of DNA chip fluorescence intensity to that without chemical substance) | The level of expressed mRNA in the presence of chemical substance/ (yeast gene YIL060W) | The level of expressed mRNA in the presence of chemical substance/ (ratio to absence) (yeast gene YIL088C) | The level of expressed mRNA in the presence of chemical substance/ (ratio to absence) (yeast gene YIL166C) | The level of expressed mRNA in the presence of chemical substance/in the absence of chemical substance (yeast gene YJL052W) | The level of expressed mRNA in the presence of chemical substance/The level of expressed mRNA in the absence of chemical substance (yeast gene YJL089W) | The level of expressed mRNA in the presence of chemical substance/The level of expressed mRNA in the absence of chemical substance (yeast gene YJL116C) | The level of expressed mRNA in the presence of chemical substance/ (in its absence), gene YJL216C (yeast gene YJL216C, ratio of DNA chip fluorescence intensity to that without chemical substance) | The level of expressed mRNA in the presence of chemical substance/in the absence of chemical substance (yeast gene YJR010W) | The level of expressed mRNA in the presence of chemical substance/ (ratio to absence) (yeast gene YJR106W) | The level of expressed mRNA in the presence of chemical substance/The level of expressed mRNA in the absence of chemical substance (yeast gene YKL039W) | The level of expressed mRNA in the presence of chemical substance/ (yeast gene YKL133C)
0.4: The level of expressed mRNA in the presence of chemical substance/The level of expressed mRNA in the absence of chemical substance (yeast gene YJR004C)
1.6: The level of expressed mRNA in the presence of chemical substance/ (yeast gene YGR295C) | The level of expressed mRNA in the presence of chemical substance/ (ratio to absence of chemical substance) (yeast gene YHL028W) | The level of expressed mRNA in the presence of chemical substance/in the absence of chemical substance (yeast gene YHR112C) | The level of expressed mRNA in the presence of chemical substance/ (ratio to absence) (yeast gene YIL170W) | The level of expressed mRNA in the presence of chemical substance/ (ratio to absence) (yeast gene YJL219W) | The level of expressed mRNA in the presence of chemical substance/The level of expressed mRNA in the absence of chemical substance (yeast gene YKL013C)
0.6: The level of expressed mRNA in the presence of chemical substance/ (ratio to absence) (yeast gene YJL212C)
1.3: The level of expressed mRNA in the presence of chemical substance/The level of expressed mRNA in the absence of chemical substance (yeast gene YGR136W) | The level of expressed mRNA in the presence of chemical substance/ (yeast gene YGR153W) | The level of expressed mRNA in the presence of chemical substance/in the absence of chemical substance (yeast gene YGR254W) | The level of expressed mRNA in the presence of chemical substance/in the absence of chemical substance (yeast gene YHR044C) | The level of expressed mRNA in the presence of chemical substance/The level of expressed mRNA in the absence of chemical substance (yeast gene YHR142W) | The level of expressed mRNA in the presence of chemical substance/ (yeast gene YHR145C) | The level of expressed mRNA in the presence of chemical substance/ (ratio to absence) (yeast gene YHR175W) | The level of expressed mRNA in the presence of chemical substance/The level of expressed mRNA in the absence of chemical substance (yeast gene YIL123W) | The level of expressed mRNA in the presence of chemical substance/ (ratio to absence) (yeast gene YJR095W) | The level of expressed mRNA in the presence of chemical substance/in the absence of chemical substance (yeast gene YJR155W)
1.5: The level of expressed mRNA in the presence of chemical substance/ (ratio to absence) (yeast gene YIL056W) | The level of expressed mRNA in the presence of chemical substance/in the absence of chemical substance (yeast gene YIR017C)
2.6: The level of expressed mRNA in the presence of chemical substance/The level of expressed mRNA in the absence of chemical substance (yeast gene YHR071W)
2.3: The level of expressed mRNA in the presence of chemical substance/The level of expressed mRNA in the absence of chemical substance (yeast gene YGR189C)
0.9: The level of expressed mRNA in the presence of chemical substance/ (ratio to absence of chemical substance) (yeast gene YHL046C) | The level of expressed mRNA in the presence of chemical substance/ (ratio to absence) (yeast gene YHR092C) | The level of expressed mRNA in the presence of chemical substance/ (yeast gene YHR116W) | The level of expressed mRNA in the presence of chemical substance/ (yeast gene YIL083C) | The level of expressed mRNA in the presence of chemical substance/in the absence of chemical substance (yeast gene YIR030C) | The level of expressed mRNA in the presence of chemical substance/ (ratio to absence), gene YJL180C (yeast gene YJL180C, mitochondria-located protein genes, 2 h culture with chemical) | The level of expressed mRNA in the presence of chemical substance/The level of expressed mRNA in the absence of chemical substance (yeast gene YKL165C)
2.1: The level of expressed mRNA in the presence of chemical substance/ (yeast gene YIL065C) | The level of expressed mRNA in the presence of chemical substance/ (ratio to absence) (yeast gene YJL094C) | The level of expressed mRNA in the presence of chemical substance/ (yeast gene YJL213W)
2.4: The level of expressed mRNA in the presence of chemical substance/in the absence of chemical substance (yeast gene YIL160C)
2.9: The level of expressed mRNA in the presence of chemical substance/in the absence of chemical substance (yeast gene YJR073C)
6.5: The level of expressed mRNA in the presence of chemical substance/in the absence of chemical substance (yeast gene YJL153C)
